pIC50: −log10 of the molar value. Calls of active or inactive are those of the source. The calls are words filed in the database; no cut-off is given here.
Columns and labels:
Plasmodium falciparum [1] = assay: Antiplasmodial activity against synchronized ring stage Plasmodium falciparum 3D7 infected in human erythrocytes assessed as reduction in parasite growth incubated for 72 hrs by Giemsa staining based light microscopic method; type: functional, organism-based; conditions: 3D7, Erythrocyte
Plasmodium falciparum [2] = assay: Antiplasmodial activity against synchronized ring stage Plasmodium falciparum Dd2 infected in human erythrocytes assessed as reduction in parasite growth incubated for 72 hrs by Giemsa staining based light microscopic method; type: functional, organism-based; conditions: Dd2, Erythrocyte
HepG2 = assay: Cytotoxicity against human HepG2 cells assessed as reduction in cell viability incubated for 72 hrs by cell titer glo assay; type: cell-based; conditions: HepG2, 72 h
HEK-293T = assay: Cytotoxicity against human HEK293T cells assessed as reduction in cell viability incubated for 72 hrs by cell titer glo assay; type: cell-based
[3] = Selectivity index, ratio of IC50 for cytotoxicity against human HepG2 cells assessed to IC50 for antiplasmodial activity against synchronized ring stage Plasmodium falciparum 3D7 infected in human erythrocytes; type: toxicity, cell-based; conditions: read-out: Ratio IC50
[4] = Selectivity index, ratio of IC50 for cytotoxicity against human HEK293T cells assessed to IC50 for antiplasmodial activity against synchronized ring stage Plasmodium falciparum 3D7 infected in human erythrocytes; type: toxicity, cell-based; conditions: read-out: Ratio IC50
Plasmodium falciparum [5] = assay: Antiplasmodial activity against Plasmodium falciparum GB4 infected in human erythrocytes assessed as reduction in parasite growth incubated for 72 hrs by Giemsa staining based light microscopic method; type: functional, organism-based; conditions: GB4, Erythrocyte
Plasmodium falciparum [6] = assay: Antiplasmodial activity against Plasmodium falciparum C2A infected in human erythrocytes assessed as reduction in parasite growth incubated for 72 hrs by Giemsa staining based light microscopic method; type: functional, organism-based; conditions: Erythrocyte
Plasmodium falciparum [7] = assay: Antiplasmodial activity against Plasmodium falciparum CP286 infected in human erythrocytes assessed as reduction in parasite growth incubated for 72 hrs by Giemsa staining based light microscopic method; type: functional, organism-based; conditions: CP286, Erythrocyte
Plasmodium falciparum [8] = assay: Antiplasmodial activity against artemisinin-resistant Plasmodium falciparum 6218 infected in human erythrocytes assessed as reduction in parasite growth incubated for 72 hrs by Giemsa staining based light microscopic method; type: functional, organism-based; conditions: Plasmodium falciparum, 6218, Erythrocyte
Plasmodium falciparum [9] = assay: Antiplasmodial activity against artemisinin-resistant ring stage Plasmodium falciparum 6320 infected in human erythrocytes assessed as reduction in parasite growth incubated for 72 hrs by Giemsa staining based light microscopic method; type: functional, organism-based; conditions: Plasmodium falciparum, 6320, Erythrocyte
[10] = Half life in mouse liver microsomes incubated upto 45 mins in presence of NADPH by LC-MS/MS analysis; type: ADME, Microsome
[11] = Clearance in mouse liver microsomes incubated upto 45 mins in presence of NADPH by LC-MS/MS analysis; type: ADME, Microsome; conditions: read-out: CLH
[12] = Toxicity in Balb/c mouse infected with blood stage Plasmodium yoelii assessed as animal death at 60 mg/kg, ip QD for 5 consecutive days and measured on day 30; type: organism-based; conditions: in vivo, 120 h, time 5 day
[13] = Toxicity in Balb/c mouse infected with blood stage Plasmodium yoelii assessed as animal death at 10 to 30 mg/kg, ip QD for 5 consecutive days and measured on day 6; type: organism-based; conditions: in vivo, 120 h, dose 10-30 mg/kg, time 5 day
Plasmodium yoelii [14] = assay: Antiplasmodial activity against blood stage Plasmodium yoelii infected in Balb/c mouse assessed as reduction in parasitemia at 10 to 30 mg/kg, ip QD for 5 consecutive days and measured on day 20 by microscopic analysis; type: functional, organism-based; conditions: dose 10-30 mg/kg, time 5.0 day
[15] = Toxicity in Balb/c mouse infected with blood stage Plasmodium yoelii assessed as recrudescence at 10 to 30 mg/kg, ip QD for 5 consecutive days and measured on day 20; type: organism-based; conditions: in vivo, 120 h, dose 10-30 mg/kg, time 5 day
Plasmodium yoelii [16] = assay: Antiplasmodial activity against blood stage Plasmodium yoelii infected in Balb/c mouse assessed as reduction in parasitemia at 60 mg/kg, ip QD for 5 consecutive days and measured on day 30 by microscopic analysis; type: functional, organism-based; conditions: time 5.0 day
[17] = Toxicity in Balb/c mouse infected with sporozoites liver stage Plasmodium berghei assessed as animal death at 30 mg/kg, ip administered as single dose and measured after 2 hrs; type: organism-based; conditions: in vivo
Plasmodium berghei = assay: Antiplasmodial activity against liver stage Plasmodium berghei infected in Balb/c mouse assessed as reduction in parasitemia at 30 mg/kg, ip administered as single dose by microscopic analysis; type: functional, organism-based
Plasmodium falciparum [18] = assay: Antiplasmodial activity against synchronized ring stage Plasmodium falciparum 3D7 infected in human erythrocytes assessed as new ring stage formation at 10 times IC50 incubated for 12 hrs followed by compound washout and measured at 50 hrs by […] analysis; type: functional, organism-based; conditions: Erythrocyte
Plasmodium falciparum [19] = assay: Antiplasmodial activity against schizont stage Plasmodium falciparum 3D7 infected in human erythrocytes assessed as reduction in parasitemia at 10 times IC50 incubated for 12 hrs followed by compound washout and measured at 96 hrs post infection by […] analysis; type: functional, organism-based; conditions: Erythrocyte
Plasmodium falciparum [20] = assay: Inhibition of Plasmodium falciparum HDAC assessed as hyperacetylation of histone H3 at 20 times IC50 incubated for 4 hrs by Western blot analysis
Plasmodium falciparum [21] = assay: Antimalarial activity against synchronized schizont stage transgenic Plasmodium falciparum 3D7 with C-terminal 3xTY1-fused HDAC1 knockdown assessed as parasite growth inhibition pretreated with glucosamine followed by compound treatment and incubated for 4 hrs followed by compound washout for thrice and subsequent culturing for 68 hrs by SYBR Green 1 staining based analysis; type: functional, organism-based
Plasmodium falciparum [22] = assay: Antimalarial activity against synchronized schizont stage transgenic Plasmodium falciparum 3D7 with C-terminal 3xTY1-fused HDAC2 knockdown assessed as parasite growth inhibition pretreated with glucosamine followed by compound treatment and incubated for 4 hrs followed by compound washout for thrice and subsequent culturing for 68 hrs by SYBR Green 1 staining based analysis; type: functional, organism-based
Plasmodium falciparum [23] = assay: Antimalarial activity against synchronized schizont stage transgenic Plasmodium falciparum 3D7 with C-terminal glmS-fused HDAC2 knockdown assessed as parasite growth inhibition pretreated with glucosamine followed by compound treatment and incubated for 4 hrs followed by compound washout for thrice and subsequent culturing for 68 hrs by SYBR Green 1 staining based analysis; type: functional, organism-based
[24] = Inhibition of recombinant full length C-terminal His/FLAG-tagged Plasmodium falciparum HDAC1 expressed in baculovirus infected sf9 insect cells using fluorogenic […] as substrate preincubated for 1.5 hrs followed by substrate addition and measured after 30 mins by HDAC-GloI/II assay
[25] = Cmax in Balb/c mouse at 5 mg/kg, ip administered as single dose measured upto 24 hrs by LC-MS/MS analysis; type: ADME, organism-based; design: route intraperitoneal, dose 5 mg/kg, time <=24; conditions: in vivo
[26] = AUC (0 to infinity) in Balb/c mouse at 10 mg/kg, po administered as single dose measured upto 24 hrs by LC-MS/MS analysis; type: ADME, organism-based; design: route oral, dose 10 mg/kg, time <=24; conditions: in vivo
[27] = Apparent clearance during terminal phase in Balb/c mouse at 5 mg/kg, ip administered as single dose measured upto 24 hrs by LC-MS/MS analysis; type: ADME, organism-based; conditions: Balb/c, in vivo, read-out: CLz/F (converted)
[28] = Apparent volume of distribution during terminal phase in Balb/c mouse at 5 mg/kg, ip administered as single dose measured upto 24 hrs by LC-MS/MS analysis; type: ADME, organism-based; conditions: Balb/c, in vivo, read-out: Vz/F
[29] = Apparent volume of distribution during terminal phase in Balb/c mouse at 10 mg/kg, po administered as single dose measured upto 24 hrs by LC-MS/MS analysis; type: ADME, organism-based; conditions: in vivo
Plasmodium falciparum [30] = assay: Antiplasmodial activity against artemisinin-resistant Plasmodium falciparum 6218 assessed as reduction in parasite survival at 700 nM incubated for 6 hrs followed by compound washout thrice and further cultured in compound free medium for 66 hrs by RSA; type: functional, organism-based
Plasmodium falciparum [31] = assay: Antiplasmodial activity against artemisinin-resistant Plasmodium falciparum 6320 assessed as reduction in parasite survival at 700 nM incubated for 6 hrs followed by compound washout thrice and further cultured in compound free medium for 66 hrs by RSA; type: functional, organism-based

| SMILES | pIC50 (Plasmodium falciparum [1]) | pIC50 (Plasmodium falciparum [2]) | pIC50 (HepG2) | pIC50 (HEK-293T) | selectivity ratio [3] | selectivity ratio [4] | pIC50 (Plasmodium falciparum [5]) | pIC50 (Plasmodium falciparum [6]) | pIC50 (Plasmodium falciparum [7]) | pIC50 (Plasmodium falciparum [8]) | pIC50 (Plasmodium falciparum [9]) | half-life [10] | CLint scaled [11] | Activity [12] | Activity [13] | Activity (Plasmodium yoelii [14]) | Activity (Plasmodium yoelii [16]) | also measured |
| --- | --- | --- | --- | --- | --- | --- | --- | --- | --- | --- | --- | --- | --- | --- | --- | --- | --- | --- |
| Cl.Cn1cc(CN2CCC3(CCN(c4ncc(C(=O)NO)cn4)CC3)C2)c2cnccc21 | 8.40 | 8.31 | 6.01 | 5.84 | 248 | 370 | 8.02 | 7.93 | 7.95 | 8.06 | 8.08 | 2.09 h | 43.5 mL/min/kg | Toxic |  |  |  |  |
| Cl.Cn1cc(CN2CCC3(CCN(c4ncc(C(=O)NO)cn4)CC3)C2)c2ccncc21 | 8.52 | 8.25 | 6.10 | 6.27 | 265 | 180 | 8.36 | 8.31 | 8.24 | 8.42 | 8.41 | 3.06 h | 29.7 mL/min/kg |  | Non-Toxic | inactive |  | Activity [15]: Toxic |
| Cl.Cn1cc(CN2CCC3(CCN(c4ncc(C(=O)NO)cn4)CC3)C2)c2cccnc21 | 8.52 | 8.47 | 6.55 | 6.40 | 93 | 132 | 8.19 | 8.21 | 8.17 | 8.30 | 8.28 | 2.75 h | 33.1 mL/min/kg | Non-Toxic |  |  | inactive |  |
| Cl.Cn1cc(CN2CCC3(CCN(c4ncc(C(=O)NO)cn4)CC3)C2)c2ncccc21 | 8.49 | 8.37 | 6.07 | 6.12 | 266 | 235 | 8.43 | 8.30 | 8.26 | 8.39 | 8.42 | 2.25 h | 40.4 mL/min/kg | Non-Toxic |  |  | inactive |  |
| Cl.Cn1cc(CNCC2CCN(c3ncc(C(=O)NO)cn3)CC2)c2ccccc21 [QUISINOSTAT HYDROCHLORIDE] | 8.28 | 8.15 | 7.38 | 7.32 |  |  | 8.77 | 8.60 |  |  | 8.79 |  | 410 mL/min/kg |  | Toxic | inactive |  | Activity [17]: Toxic; Activity (Plasmodium berghei): inactive; Activity (Plasmodium falciparum [18]): Active; Activity (Plasmodium falciparum [19]): Active; inhibition (Plasmodium falciparum [20]): Active; pIC50 (Plasmodium falciparum [21]): 7.91; pIC50 (Plasmodium falciparum [22]): 7.76; pIC50 (Plasmodium falciparum [23]): 7.63; pIC50 [24]: 11.52; Cmax [25]: 88.7 ng/mL; AUC(0-inf) [26]: 5.98 ng·h/mL; CL/F [27]: 462 mL/min/kg; Vd/F [28]: 245 L/kg; Vz/F [29]: 4172 L/kg; Activity (Plasmodium falciparum [30]): Active; Activity (Plasmodium falciparum [31]): Active |
